Assays:
human V2R = human V2R (Homo sapiens (Human), UniProt P30518); assay: Inhibition activity on human V2R (cAMP HTRF assay, HEK293/human V2R pool cells); type: cell-based; conditions: vasopressin
Experimental: The inhibition effect of the compounds of the present invention on the activity of human V2R protein expressed in HEK293/human V2R cells was determined by the following experimental method:
The pcDNA3.1-V2R plasmid was transferred into HEK293 cells with the Lipofectamine® 3000 transfection reagent; G418 was added on the next day, and the HEK293/human V2R pool cell lines were obtained.
HEK293/human V2R pool cells were dissociated with the cell dissociation solution (enzyme-free), thereby dissociating the cells from the cell culture dish into individual cells. Then the cell solution was blown well, and centrifuged to remove the supernatant. The cells were resuspended in the test buffer 1 (1×HBSS+20 mM HEPES+0.1% BSA) and counted. The cell density was adjusted to 1250 cells/5 μl, i.e., 2.5*10^5/ml.
The compounds were formulated into a series of concentrations of 20 mM, 6.67 mM, 2.22 mM, 0.74 mM, 0.25 mM, 0.08 mM, 27.4 μM, 9.14 μM, 3.05 μM, 1.02 μM, 0.34 μM and 0 μM (DMSO) with pure DMSO. The compounds were then diluted into a 4-fold working concentration solution with the test buffer 2 (test buffer 1+1 mM IBMX).
Agonist: 460 μM vasopressin was used as the mother liquor, which was formulated at 2 μM with DMSO, and then diluted to 0.5 nM with the test buffer 2.
Standards: The first point was 20 μl of a stock solution (2848 nM), which was diluted successively to a total of eleven concentrations in a 4-fold concentration gradient with the test buffer 1 from the second point.
1. The well-mixed cells were added to a 384-well plate (5 μl/well) without changing the tip.
2. The test compounds and positive compound formulated were added (2.5 μl/well), and the tips were changed.
3. The plate was centrifuged at 1000 rpm for 1 min, shaken for 30 sec to mix well, and incubated at room temperature for 30 min.
4. The standard curve wells were added with the test buffer 2 (5 μl/well).
5. The formulated agonist was added (2.5 μl/well), and the tips were changed; the plate was centrifuged at 1000 rpm for 1 min, shaken for 30 sec to mix well, and incubated at room temperature for 30 min.
6. cAMP-d2 (a component in the cAMP dynamic 2 kit) and Anti-cAMP-Eu-Cryptate (a component in the cAMP dynamic 2 kit) were formulated in the dark, which were then mixed well with cAMP lysate (a component in the cAMP dynamic 2 kit) in a ratio of 1:4. Each well was added with the formulated cAMP-d2 solution (5 μl/well), followed by addition of Anti-cAMP-Eu-Cryptate (5 μl/well). The plate was shaken for 30 sec to mix well, and incubated in the dark at room temperature for 1 h.
The HTRF Signals were Read by the PheraStar Multi-Function Microplate Reader.
The data in this test was processed using the data processing software Graphpad Prism.
The inhibition activity of the compounds of the present invention on human V2R was determined by the above test, and the IC50 values obtained are shown in Table 4.

OTR = OTR (Rattus norvegicus (Rat), UniProt P70536); assay: Oxytocin-induced rat uterine contraction model; type: in vivo; conditions: female SD rats, 1 μg/kg OT i.v.
OTR, sequence (P70536 whole entry): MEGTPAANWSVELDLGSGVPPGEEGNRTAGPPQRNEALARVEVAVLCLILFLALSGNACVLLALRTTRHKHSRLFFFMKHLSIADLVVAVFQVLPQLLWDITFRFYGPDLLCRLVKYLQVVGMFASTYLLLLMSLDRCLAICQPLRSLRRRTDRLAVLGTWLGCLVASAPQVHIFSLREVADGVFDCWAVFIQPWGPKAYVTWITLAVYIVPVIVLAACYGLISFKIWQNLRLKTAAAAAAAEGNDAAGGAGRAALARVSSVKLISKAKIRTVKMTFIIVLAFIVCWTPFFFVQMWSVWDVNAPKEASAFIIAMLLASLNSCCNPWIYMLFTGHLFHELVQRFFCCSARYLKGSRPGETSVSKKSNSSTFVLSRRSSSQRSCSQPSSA
Experimental: The efficacy of OTR inhibitors (compound 2-10mpk, compound 2-30mpk and compound 2-100mpk) on oxytocin (OT)-induced rat uterine contraction model was evaluated by establishing a rat uterine contraction model.
Compound 2-100mpk: 221.0 mg of compound 2 was weighed, added with 5.40 ml of Cremophor RH40, 2.16 ml of Masine 35-1, 3.24 ml of polyethylene glycol 400 (PEG400) and 1.20 ml of ethanol respectively, and mixed well by ultrasonic vibration;
Compound 2-30mpk: 54.2 mg of compound 2 was weighed, added with 4.50 ml of Cremophor RH40, 1.80 ml of Masine 35-1, 2.70 ml of polyethylene glycol 400 (PEG400) and 1.00 ml of ethanol respectively, and mixed well by ultrasonic vibration;
Compound 2-10mpk: 1 ml of compound 2-100mpk solution was added with 9 ml of solvent (45% of Cremophor RH40, 18% of Masine 35-1, 27% of PEG400 and 10% of ethanol), and mixed well. […]
After completion of the experiment, the area under curve (AUC) of the uterine contraction pressure 5 minutes before and after the administration of the inducing agent was calculated respectively. The efficacy of the test compound was evaluated by calculating the ratio of the difference value in AUC before and after induction to the AUC before induction, and comparing with the difference value of the ratio after administration of the test compound. ΔAUC ratio=(AUC0−AUCT)/AUC0; […]

human V2R, sequence (P30518 whole entry): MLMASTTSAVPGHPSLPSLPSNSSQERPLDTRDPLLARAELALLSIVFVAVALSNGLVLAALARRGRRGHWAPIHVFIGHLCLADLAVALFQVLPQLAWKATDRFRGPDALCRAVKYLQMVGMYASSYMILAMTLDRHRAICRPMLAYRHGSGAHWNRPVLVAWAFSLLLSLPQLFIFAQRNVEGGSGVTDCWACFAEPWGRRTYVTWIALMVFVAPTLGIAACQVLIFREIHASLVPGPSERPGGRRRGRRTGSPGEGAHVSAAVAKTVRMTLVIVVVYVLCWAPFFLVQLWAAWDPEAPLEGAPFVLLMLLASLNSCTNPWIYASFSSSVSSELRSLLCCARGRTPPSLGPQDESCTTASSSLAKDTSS

Row | Compound | IC50 (human V2R) [µM] | Efficacy on OT-induced uterine contraction vs solvent control group (OTR; 30mpk p.o.) | Efficacy on OT-induced uterine contraction vs solvent control group (OTR; 100mpk p.o.)
1 | COCc1nnc(N2CC(c3cccc4cc(F)ccc34)C2)n1-c1ccc(OC)nc1 [Example 2, 5-(3-(3-(6-Fluoronaphthalen-1-yl)azetidin-1-yl)-5-(methoxymethyl)-4H-1,2,4-triazol-4-yl)-2-methoxypyridine] | 4.9 | can effectively block the downstream function (uterine contraction) of oxytocin receptors mediated by oxytocin | can effectively block the downstream function (uterine contraction) of oxytocin receptors mediated by oxytocin
2 | COCc1nnc(N2CC(n3cc(C)c4cc(F)ccc43)C2)n1-c1ccc(OC)nc1 [Example 17, 5-Fluoro-1-(1-(5-(methoxymethyl)-4-(6-methoxypyridin-3-yl)-4H-1,2,4-triazol-3-yl)azetidin-3-yl)-3-methyl-1H-indole] | 10.9 |  | 
